Test results as given in patent US8993574B2, “Pyrrole antifungal agents” (F2G Ltd, priority 2008, dated 2015).
Converted amounts (≈) assume the structure as drawn.

Columns and labels:
Type in all cases: cell-based
[1] = tested on: Aspergillus fumigatus AF293; test: MIC, YAG medium; conditions: 24 h at 35° C, MIC banded into grades; for MIC: Aspergillus fumigatus, read-out: MIC grade, A. fumigatus
How it was run: (§1)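 Spores from 5-day Sabouraud agar cultures were suspended in YAG medium (1% glucose, 1% ammonium chloride, 0.5% yeast extract) at final inocula of 1−2×10^4 cfu/mL against doubling dilutions of compound (50-0.05 mg/L; 0.5-0.0005 mg/L on repeat). Plates were incubated 24 h at 35° C. MIC was the lowest concentration giving >70% growth inhibition by OD485 versus drug-free control.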

Aspergillus niger [2] = test: MIC, YAG medium; conditions: 24 h at 35° C, MIC banded into grades; for MIC: Aspergillus niger, read-out: MIC grade, A. niger
How it was run: as §1

Aspergillus terreus AT49 [3] = test: MIC, YAG medium; conditions: 24 h at 35° C, MIC banded into grades; for MIC: Aspergillus terreus, read-out: MIC grade, A. terreus 49
How it was run: as §1

Aspergillus flavus [4] = test: MIC, YAG medium; conditions: 24 h at 35° C, MIC banded into grades; for MIC: Aspergillus flavus, 24 h, read-out: MIC grade, A. flavus
How it was run: as §1

[5] = tested on: Aspergillus fumigatus AF210; test: MIC, YAG medium; conditions: 24 h at 35° C, MIC banded into grades; for MIC: Aspergillus fumigatus, read-out: MIC grade, A. fumigatus 210
How it was run: as §1

Aspergillus terreus AT4 [6] = test: MIC, YAG medium; conditions: 24 h at 35° C, MIC banded into grades; for MIC: Aspergillus terreus, read-out: MIC grade, A. terreus
How it was run: as §1

Candida parapsilosis = test: MIC, RPMI medium; conditions: 24-48 h at 35° C., >80% growth inhibition, banded into grades; for MIC: Lodderomyces parapsilosis
How it was run: (§2)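 MIC taken as lowest drug level inhibiting growth by >80% relative to drug-free wells, read as OD at 485 nm after 24-48 h at 35° C. Organisms at 1−2×10^4 cfu/mL in RPMI (2% glucose, 0.135 M MOPS, pH 7.0) exposed to doubling dilutions spanning 50-0.05 mg/L.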

Candida albicans = test: MIC, RPMI medium; conditions: 24-48 h at 35° C., >80% growth inhibition, banded into grades; for MIC: Candida albicans
How it was run: as §2

Candida glabrata = test: MIC, RPMI medium; conditions: 24-48 h at 35° C., >80% growth inhibition, banded into grades; for MIC: Nakaseomyces glabratus
How it was run: as §2

Candida krusei = test: MIC, RPMI medium; conditions: 24-48 h at 35° C., >80% growth inhibition, banded into grades; for MIC: Pichia kudriavzevii
How it was run: as §2

[7] = tested on: Aspergillus fumigatus AF293; test: MIC, RPMI medium; conditions: for MIC: Aspergillus fumigatus, AF293, MIC banded into grades, read-out: MIC grade, A. fumigatus
How it was run: as §2

Aspergillus niger [8] = test: MIC, RPMI medium; conditions: MIC banded into grades; for MIC: Aspergillus niger, read-out: MIC grade, A. niger
How it was run: as §2

Aspergillus terreus AT49 [9] = test: MIC, RPMI medium; conditions: for MIC: Aspergillus terreus, AT49, MIC banded into grades, read-out: MIC grade, A. terreus 49
How it was run: as §2

Aspergillus flavus [10] = test: MIC, RPMI medium; conditions: MIC banded into grades; for MIC: Aspergillus flavus, read-out: MIC grade, A. flavus
How it was run: as §2

Candida tropicalis = test: MIC, RPMI medium; conditions: 24-48 h at 35° C., >80% growth inhibition, banded into grades; for MIC: Candida tropicalis
How it was run: as §2

[11] = tested on: Aspergillus fumigatus AF210; test: MIC, RPMI medium; conditions: for MIC: Aspergillus fumigatus, AF210, MIC banded into grades, read-out: MIC grade, A. fumigatus 210
How it was run: as §2

Aspergillus terreus AT4 [12] = test: MIC, RPMI medium; conditions: for MIC: Aspergillus terreus, AT4, MIC banded into grades, read-out: MIC grade, A. terreus
How it was run: as §2

Row | Compound | MIC [1] | MIC (Aspergillus niger [2]) | MIC (Aspergillus terreus AT49 [3]) | MIC (Aspergillus flavus [4]) | MIC [5] | MIC (Aspergillus terreus AT4 [6]) | MIC (Candida parapsilosis) | MIC (Candida albicans) | MIC (Candida glabrata) | MIC (Candida krusei) | MIC [7] | MIC (Aspergillus niger [8]) | MIC (Aspergillus terreus AT49 [9]) | MIC (Aspergillus flavus [10]) | MIC (Candida tropicalis) | MIC [11] | MIC (Aspergillus terreus AT4 [12]) | further results
1 | COCCn1ccc(-c2ccc(Cl)cc2)c1C(=O)C(=O)Nc1ccc(N2CCN(c3cc(C)cc(C)n3)CC2)cc1 [Example 59, 2-[3-(4-Chloro-phenyl)-1-(2-methoxy-ethyl)-1H-pyrrol-2-yl]-N-{4-[4-(4,6-dimethyl-pyridin-2-yl)-piperazin-1-yl]-phenyl}-2-oxo-acetamide] | 1 to 10 µg/mL (≈ 1.75 to 17.5 µM) | > 10 µg/mL | 1 to 10 µg/mL (≈ 1.75 to 17.5 µM) | > 10 µg/mL | 1 to 10 µg/mL (≈ 1.75 to 17.5 µM) | 1 to 10 µg/mL (≈ 1.75 to 17.5 µM) | < 1 µg/mL | < 1 µg/mL | < 1 µg/mL | 1 to 10 µg/mL (≈ 1.75 to 17.5 µM) | 1 to 10 µg/mL (≈ 1.75 to 17.5 µM) | > 10 µg/mL | > 10 µg/mL | > 10 µg/mL | < 1 µg/mL | 1 to 10 µg/mL (≈ 1.75 to 17.5 µM) | > 10 µg/mL | –
2 | COCCn1c(C)cc(-c2ccccc2)c1C(=O)C(=O)Nc1ccccc1 [Example 60, 2-[1-(2-Methoxy-ethyl)-5-methyl-3-phenyl-1H-pyrrol-2-yl]-2-oxo-N-phenyl-1-acetamide] | – | – | – | – | – | – | – | – | – | – | – | – | – | – | – | – | – | MIC grade, A. fumigatus [1]: 2 (A grade of 2 represents an MIC of from 1 to 10 mg/L); MIC grade, A. niger (Aspergillus niger [2]): 2 (A grade of 2 represents an MIC of from 1 to 10 mg/L); MIC grade, A. terreus 49 (Aspergillus terreus AT49 [3]): 2 (A grade of 2 represents an MIC of from 1 to 10 mg/L); MIC grade, A. flavus (Aspergillus flavus [4]): 1 (a grade of 1 represents an MIC of greater than 10 mg/L); MIC grade, A. fumigatus 210 [5]: 2 (A grade of 2 represents an MIC of from 1 to 10 mg/L); MIC grade, A. terreus (Aspergillus terreus AT4 [6]): 2 (A grade of 2 represents an MIC of from 1 to 10 mg/L); Candida MIC, C. parapsilosis (Candida parapsilosis): 3 (A grade of 3 represents an MIC of less than 1 mg/L); Candida MIC, C. albicans (Candida albicans): 3 (A grade of 3 represents an MIC of less than 1 mg/L); Candida MIC, C. glabrata (Candida glabrata): 3 (A grade of 3 represents an MIC of less than 1 mg/L); Candida MIC, C. krusei (Candida krusei): 3 (A grade of 3 represents an MIC of less than 1 mg/L); MIC grade, A. fumigatus ([7]; MIC banded into grades): 2 (A grade of 2 represents an MIC of from 1 to 10 mg/L); MIC grade, A. niger (Aspergillus niger [8]): 2 (A grade of 2 represents an MIC of from 1 to 10 mg/L); MIC grade, A. terreus 49 (Aspergillus terreus AT49 [9]; MIC banded into grades): 1 (a grade of 1 represents an MIC of greater than 10 mg/L); MIC grade, A. flavus (Aspergillus flavus [10]): 1 (a grade of 1 represents an MIC of greater than 10 mg/L); Candida MIC, C. tropicalis (Candida tropicalis): 2 (A grade of 2 represents an MIC of from 1 to 10 mg/L); MIC grade, A. fumigatus 210 ([11]; MIC banded into grades): 2 (A grade of 2 represents an MIC of from 1 to 10 mg/L); MIC grade, A. terreus (Aspergillus terreus AT4 [12]; MIC banded into grades): 1 (a grade of 1 represents an MIC of greater than 10 mg/L)
3 | COCn1ccc(-c2ccccc2)c1C(=O)C(=O)Nc1ccc(N2CCN(c3cc(C)cc(C)n3)CC2)cc1 [Example 63, N-{4-[4-(4,6-Dimethyl-pyridin-2-yl)-piperazin-1-yl]-phenyl}-2-(1-methoxymethyl-3-phenyl-1H-pyrrol-2-yl)-2-oxo-acetamide] | < 1 µg/mL | 1 to 10 µg/mL (≈ 1.91 to 19.1 µM) | < 1 µg/mL | < 1 µg/mL | < 1 µg/mL | < 1 µg/mL | < 1 µg/mL | 1 to 10 µg/mL (≈ 1.91 to 19.1 µM) | < 1 µg/mL | < 1 µg/mL | < 1 µg/mL | < 1 µg/mL | < 1 µg/mL | < 1 µg/mL | < 1 µg/mL | < 1 µg/mL | < 1 µg/mL | –
4 | COCCn1ccc(CC(C)C)c1C(=O)C(=O)Nc1ccc(N2CCN(c3cc(C)cc(C)n3)CC2)cc1 [Example 68, N-{4-[4-(4,6-Dimethyl-pyridin-2-yl)-piperazin-1-yl]-phenyl}-2-[3-isobutyl-1-(2-methoxy-ethyl)-1H-pyrrol-2-yl]-2-oxo-acetamide] | 1 to 10 µg/mL (≈ 1.93 to 19.3 µM) | > 10 µg/mL | 1 to 10 µg/mL (≈ 1.93 to 19.3 µM) | > 10 µg/mL | > 10 µg/mL | 1 to 10 µg/mL (≈ 1.93 to 19.3 µM) | < 1 µg/mL | < 1 µg/mL | < 1 µg/mL | 1 to 10 µg/mL (≈ 1.93 to 19.3 µM) | > 10 µg/mL | > 10 µg/mL | > 10 µg/mL | > 10 µg/mL | < 1 µg/mL | > 10 µg/mL | > 10 µg/mL | –
